# Source: patent publication US20190328825A1, “METHODS FOR TREATING AUTISM SPECTRUM DISORDER AND ASSOCIATED SYMPTOMS” (Arizona Board of Regents on behalf of Arizona State …, priority 2015, published 2019)
# Key:
# [1] = tested on: children with ASD; assay: Toleration of study medications / adverse effects
# Text: The participants were given oral vancomycin (a non-absorbable broad spectrum antibiotic that stays in the GI tract) for 2 weeks to reduce levels of pathogenic bacteria, and then 1 day of low-volume colonoscopy prep MoviPrep® (a drink that flushes the bowels, to remove most remaining gut bacteria and vancomycin) to clear the residual vancomycin and feces. The vancomycin was intended to kill off harmful bacteria, the fasting was intended to remove any remaining bacteria and to minimize other luminal fecal material, and the colon cleanse helped remove the vancomycin and cleanse the lower GI Tract.
# The rectal dose was administered under the direct supervision of the study physician, and the first oral dose was similarly administered in the presence of the physician. Participants were randomly assigned to either the oral or rectal route of administration. If one administration route was not tolerated, or if the family preferred the other route, then participants had the option of trying the other route. For the participants with initial oral dose, a lower oral maintenance dose (2.5×10^9 CFU) was followed for 8 weeks right after the major oral initial dose. Whereas, the major rectal initial dose was followed by waiting period of 1 week followed by a lower oral maintenance dose (2.5×10^9 CFU) for 7 weeks. The maintenance SHGM dose were self-administered orally every day up to week 10. After treatment was stopped, participants were monitored for another 8 weeks.
# Prilosec (omeprazole) was administered daily to reduce stomach acid and thereby increase viability of the MTT, starting on the 12th day of oral vancomycin treatment and continuing until the end of the maintenance dose.
# [2] = tested on: children with ASD; assay: Complete Blood Count / blood chemistry panel; format: in vivo, human
# Text: The following minor changes were observed. There was a 5% decrease in potassium (p=0.01) from beginning to end of treatment, but all levels remain in the normal range. After the vancomycin (2nd week of study), there was a 8% increase in platelets (p=0.03). Four subjects had elevated levels at start, and only 2 had elevated levels after vancomycin. There was a 26% drop in blood urea nitrogen (BUN) (p=0.002), but all stayed in normal range. There was a 6% increase in albumin to globulin (A/G) ratio (p=0.03), with 1 slightly elevated. There was a 17% increase in aspartate amino transferase (AST) (p=0.01), but all remained in normal range. There was a 24% increase in alanine amino transferase (ALT) (p=0.003), where 1 remained elevated and 2 became slightly elevated. […] Slight changes (1-2%) in red blood cell indices (Mean corpuscular volume (MCV), Mean corpuscular hemoglobin (MCH), Mean corpuscular hemoglobin concentration (MCHC), and Red cell distribution width (RDW)) were observed.
# [3] = human, in vivo, 40 mg/kg per day
SMILES,"duration of behavioral reaction in most cases [1, 3] [days]","onset of behavioral reaction after start of vancomycin [1, 3] [days]","severity of behavioral symptoms ([1]; hyperactivity, tantrumming/aggression)",duration of behavioral symptoms in 1 participant ([1]; longest case) [weeks],"children developing rash ([1]; oral vancomycin with natural orange flavor, 18 children)",adverse effects overall ([1]; primarily mild to moderate hyperactivity and tantrums/aggression),"cases of increased hyperactivity ([1]; temporary, start of vancomycin)","cases of increased tantrums/aggression ([1]; temporary, start of vancomycin)","platelets, BUN, A/G, AST, ALT ([2]; 3rd and 4th tests)",increase in alanine amino transferase (ALT) ([2]; after the vancomycin) [%],increase in albumin to globulin (A/G) ratio ([2]; after the vancomycin) [%],increase in platelets ([2]; after the vancomycin (2nd week of study)) [%],"increase in aspartate amino transferase (AST) ([2]; after the vancomycin, all remained in normal range) [%]","drop in blood urea nitrogen (BUN) ([2]; after the vancomycin, all stayed in normal range) [%]",toleration of study medication ([1]; in vivo)
CN[C@H](CC(C)C)C(=O)N[C@H]1C(=O)N[C@@H](CC(N)=O)C(=O)N[C@H]2C(=O)N[C@H]3C(=O)N[C@H](C(=O)N[C@H](C(=O)O)c4cc(O)cc(O)c4-c4cc3ccc4O)[C@H](O)c3ccc(c(Cl)c3)Oc3cc2cc(c3O[C@@H]2O[C@H](CO)[C@@H](O)[C@H](O)[C@H]2O[C@H]2C[C@](C)(N)[C@H](O)[C@H](C)O2)Oc2ccc(cc2Cl)[C@H]1O [vancomycin],1 to 3,1 to 4,mild to moderate,3,One and one,only temporary adverse effects,7,5,returned to similar to baseline,24,6,8,17,26,–
"COc1ccc2[nH]c([S+]([O-])Cc3ncc(C)c(OC)c3C)nc2c1 (stereo not drawn) [Prilosec, omeprazole]",–,–,–,–,–,–,–,–,–,–,–,–,–,–,generally well-tolerated
